Experiment [1] deals with TC32 Ewing sarcoma cells, expressing EWS-FLI1. Briefly: Growth inhibition assay, TC32 cells. To be noted: for TC32 vs. PC3 / IC50: Table 1C; for TC32 vs. PC3: cellular selectivity; for IC50: read-out: IC50 TC-32; for EC50: Table 1D, read-out: TC-32 Mean EC50; for PC:TC32 (cellular selectivity): ratio of GI50 PC3 to TC32. Type of experiment: cell-based. The protocol: (§1) Growth inhibition assay to assess cytotoxicity in ETS vs non-ETS expressing cells. Cells were seeded in clear 96-well plates (VWR, Radnor, PA). Seeding densities were optimized for each cell line to support 5 days of linear growth. Following a 24 hours attachment period, cells in duplicate wells were treated with half-log increments of respective compounds (0 nM and 0.3 nM-10 μM). Working stocks were prepared from an initial 10 mM drug stock diluted in either 100% ethanol or dimethyl sulfoxide (DMSO). All wells contained a final concentration of 0.1% (v/v) respective organic solvent. Immediately following treatment, cell viability was measured for vehicle control (Day 0) wells. Cell viability was measured in the remaining wells after 72 hours of incubation with compound or vehicle control (Day 3).
(§2) Percent viability, relative to the initial cell seeding concentration, was calculated by ((TreatmentDay3−Vehicle ControlDay0)/(Vehicle ControlDay3−Vehicle ControlDay0))×100. Percent cell viability was plotted as a function of compound concentration (Log [M]) and the data were fit using a 3-parameter non-linear model with fixed Hill slope constant and 4-parameter non-linear model with variable Hill slope constant. The model with the best curve fit was used to estimate the GI50 in GraphPad Prism 7.0 software (GraphPad Software, La Jolla, CA). The 3-parameter equation used was Y=Bottom+(Top−Bottom)/(1+10[…]((X−Log[IC50]))). The 4-parameter equation used was Y=Bottom+(Top−Bottom)/(1+10[…]((Log[IC50]−X)*Hillslope)). Top and Bottom are plateaus in the units of the Y-axis (response). IC50 is the response (Y-axis) halfway between Top and Bottom plateaus.
(§3) All compounds were tested at least once in multi-well replicates and each experiment included one a control compound (i.e., MTM) to ensure the stable response of the cell lines. The selectivity index was estimated by determining the ratio of GI50 estimates between ETS fusion negative and ETS fusion positive cell lines.

For experiment [2], the system named is PC3 Prostate Cancer Cells. Briefly: Growth inhibition assay, PC3 cells. Type of experiment: cell-based. The conditions noted are these: for IC50: Table 1C; for EC50: Table 1D. How it is done:
as §1, §2, §3

The values that follow come from US12486300B2, “Mithramycin oxime derivatives having increased selectivity and anti-cancer activity” (University of Kentucky Research Foundation, priority 2018, dated 2025).

Each structure is given as a SMILES string.

On to `COC(C(=NOCC(=O)N(C)C(Cc1cn(C)c2ccccc12)C(=O)N1CCOCC1)C(O)C(C)O)C1Cc2cc3cc(OC4CC(OC5CC(O)C(O)C(C)O5)C(O)C(C)O4)c(C)c(O)c3c(O)c2C(=O)C1OC1CC(OC2CC(OC3CC(C)(O)C(O)C(C)O3)C(O)C(C)O2)C(O)C(C)O1` (centres unmarked) [AK-B6], for which, in experiment [1], the “TC32 vs. PC3” value is listed as over 3×, the IC50 fell in the range of 0.032 to 0.12 µM and the EC50 is 0.0107 µM. In experiment [2], this compound returned an IC50 of 0.15 to 0.37 µM and an EC50 of 0.0523 µM.

`COC(C(=NOCC(=O)NC(Cc1cn(C)c2ccccc12)C(=O)N1CCOCC1)C(O)C(C)O)C1Cc2cc3cc(OC4CC(OC5CC(O)C(O)C(C)O5)C(O)C(C)O4)c(C)c(O)c3c(O)c2C(=O)C1OC1CC(OC2CC(OC3CC(C)(O)C(O)C(C)O3)C(O)C(C)O2)C(O)C(C)O1` (centres unmarked) [AK-B11]: in experiment [1], the “TC32 vs. PC3” value is over 8×, the IC50 was 0.147 to 0.3 µM and the EC50 was 0.0498 µM. For the same compound, in experiment [2], the half-maximal inhibitory concentration (IC50) lay in the range of 1.6 to 2.5 µM and it took 0.666 µM to reach a half-maximal effect (EC50).

Consider `CCOC(=O)[C@H](Cc1c[nH]c2ccccc12)NC(=O)CO/N=C(\[C@@H](O)[C@@H](C)O)[C@@H](OC)[C@@H]1Cc2cc3cc(O[C@H]4C[C@@H](O[C@H]5C[C@@H](O)[C@H](O)C(C)O5)[C@H](O)C(C)O4)c(C)c(O)c3c(O)c2C(=O)[C@H]1O[C@H]1C[C@@H](O[C@H]2C[C@@H](O[C@H]3C[C@](C)(O)[C@H](O)C(C)O3)[C@H](O)C(C)O2)[C@H](O)C(C)O1` (some centres unmarked) [MTM (41)], for which, in experiment [1], the EC50 was 0.266 µM and the “PC:TC32 (cellular selectivity)” value was 13.5. In experiment [2], this compound returned an EC50 of 4.06 µM.

On to `CO[C@H](/C(=N/OCC(=O)N[C@@H](Cc1c[nH]c2ccccc12)C(N)=O)[C@@H](O)[C@@H](C)O)[C@@H]1Cc2cc3cc(O[C@H]4C[C@@H](O[C@H]5C[C@@H](O)[C@H](O)C(C)O5)[C@H](O)C(C)O4)c(C)c(O)c3c(O)c2C(=O)[C@H]1O[C@H]1C[C@@H](O[C@H]2C[C@@H](O[C@H]3C[C@](C)(O)[C@H](O)C(C)O3)[C@H](O)C(C)O2)[C@H](O)C(C)O1` (some centres unmarked) [MTM (42)], for which, in experiment [1], the EC50 came to 0.304 µM and the “PC:TC32 (cellular selectivity)” value was found to be 8.5. The compound further gave an EC50 in experiment [2] of 3.55 µM.

Regarding `CO[C@H](/C(=N/OCC(=O)N[C@@H](Cc1c[nH]c2ccccc12)C(=O)N(C)C)[C@@H](O)[C@@H](C)O)[C@@H]1Cc2cc3cc(O[C@H]4C[C@@H](O[C@H]5C[C@@H](O)[C@H](O)C(C)O5)[C@H](O)C(C)O4)c(C)c(O)c3c(O)c2C(=O)[C@H]1O[C@H]1C[C@@H](O[C@H]2C[C@@H](O[C@H]3C[C@](C)(O)[C@H](O)C(C)O3)[C@H](O)C(C)O2)[C@H](O)C(C)O1` (some centres unmarked) [MTM (44)], in experiment [1], the EC50 was found to be 0.0845 µM and the “PC:TC32 (cellular selectivity)” value was 35. Moreover, in experiment [2], the EC50 was over 1.47 µM.

Regarding `CO[C@H](/C(=N/OCC(=O)N[C@@H](Cc1c[nH]c2ccccc12)C(=O)N(C)OC)[C@@H](O)[C@@H](C)O)[C@@H]1Cc2cc3cc(O[C@H]4C[C@@H](O[C@H]5C[C@@H](O)[C@H](O)C(C)O5)[C@H](O)C(C)O4)c(C)c(O)c3c(O)c2C(=O)[C@H]1O[C@H]1C[C@@H](O[C@H]2C[C@@H](O[C@H]3C[C@](C)(O)[C@H](O)C(C)O3)[C@H](O)C(C)O2)[C@H](O)C(C)O1` (some centres unmarked) [MTM (54)], the figures for the EC50 in experiment [1] and in experiment [2] were 0.067 µM and 0.437 µM, respectively. Also, in experiment [1], the “PC:TC32 (cellular selectivity)” value is on record as 1.7.

For the compound `CO[C@H](/C(=N/OCC(=O)N[C@H](CO)Cc1c[nH]c2ccccc12)[C@@H](O)[C@@H](C)O)[C@@H]1Cc2cc3cc(O[C@H]4C[C@@H](O[C@H]5C[C@@H](O)[C@H](O)C(C)O5)[C@H](O)C(C)O4)c(C)c(O)c3c(O)c2C(=O)[C@H]1O[C@H]1C[C@@H](O[C@H]2C[C@@H](O[C@H]3C[C@](C)(O)[C@H](O)C(C)O3)[C@H](O)C(C)O2)[C@H](O)C(C)O1` (some centres unmarked) [MTM (59)], in experiment [1], the EC50 was found to be 0.0847 µM and the “PC:TC32 (cellular selectivity)” value worked out at 4.8. This compound also had an EC50 in experiment [2] of 0.313 µM.

For the compound `COC(C(=NOCC(=O)Nc1ccc2scnc2c1)C(O)C(C)O)C1Cc2cc3cc(OC4CC(OC5CC(O)C(O)C(C)O5)C(O)C(C)O4)c(C)c(O)c3c(O)c2C(=O)C1OC1CC(OC2CC(OC3CC(C)(O)C(O)C(C)O3)C(O)C(C)O2)C(O)C(C)O1` (centres unmarked) [MTM (69)], in experiment [1], the “PC:TC32 (cellular selectivity)” value is listed as 11.4.

In the case of `COC(C(=NOCC(=O)Nc1ccc2ncsc2c1)C(O)C(C)O)C1Cc2cc3cc(OC4CC(OC5CC(O)C(O)C(C)O5)C(O)C(C)O4)c(C)c(O)c3c(O)c2C(=O)C1OC1CC(OC2CC(OC3CC(C)(O)C(O)C(C)O3)C(O)C(C)O2)C(O)C(C)O1` (centres unmarked) [MTM (70)], in experiment [1], the “PC:TC32 (cellular selectivity)” value is listed as 7.2.

As to `COC(C(=NOCC(=O)Nc1ccc2[nH]cnc2c1)C(O)C(C)O)C1Cc2cc3cc(OC4CC(OC5CC(O)C(O)C(C)O5)C(O)C(C)O4)c(C)c(O)c3c(O)c2C(=O)C1OC1CC(OC2CC(OC3CC(C)(O)C(O)C(C)O3)C(O)C(C)O2)C(O)C(C)O1` (centres unmarked) [MTM (71)], the “PC:TC32 (cellular selectivity)” value in experiment [1] is 3.2.

Regarding `COC(C(=NOCC(=O)Nc1ccc2[nH]c(C)cc2c1)C(O)C(C)O)C1Cc2cc3cc(OC4CC(OC5CC(O)C(O)C(C)O5)C(O)C(C)O4)c(C)c(O)c3c(O)c2C(=O)C1OC1CC(OC2CC(OC3CC(C)(O)C(O)C(C)O3)C(O)C(C)O2)C(O)C(C)O1` (centres unmarked) [MTM (72)], in experiment [1], the “PC:TC32 (cellular selectivity)” value was 20.9.

Turning to `COC(C(=NOCC(=O)Nc1ccc2ncccc2c1)C(O)C(C)O)C1Cc2cc3cc(OC4CC(OC5CC(O)C(O)C(C)O5)C(O)C(C)O4)c(C)c(O)c3c(O)c2C(=O)C1OC1CC(OC2CC(OC3CC(C)(O)C(O)C(C)O3)C(O)C(C)O2)C(O)C(C)O1` (centres unmarked) [MTM (74)], the “PC:TC32 (cellular selectivity)” value in experiment [1] is listed as 66.6.

In the case of `COC(C(=NOCC(=O)Nc1ccc2cnccc2c1)C(O)C(C)O)C1Cc2cc3cc(OC4CC(OC5CC(O)C(O)C(C)O5)C(O)C(C)O4)c(C)c(O)c3c(O)c2C(=O)C1OC1CC(OC2CC(OC3CC(C)(O)C(O)C(C)O3)C(O)C(C)O2)C(O)C(C)O1` (centres unmarked) [MTM (75)], the “PC:TC32 (cellular selectivity)” value in experiment [1] is 118.

Turning to `COC(C(=NOCC(=O)Nc1cccc2cc[nH]c12)C(O)C(C)O)C1Cc2cc3cc(OC4CC(OC5CC(O)C(O)C(C)O5)C(O)C(C)O4)c(C)c(O)c3c(O)c2C(=O)C1OC1CC(OC2CC(OC3CC(C)(O)C(O)C(C)O3)C(O)C(C)O2)C(O)C(C)O1` (centres unmarked) [MTMox (73)], in experiment [1], the “PC:TC32 (cellular selectivity)” value is on record as 5.9.

A word on the IC50: it is the point on the concentration scale where inhibition reaches its midpoint. For orientation: EC50 means the concentration needed to bring the measured effect to its halfway point.
